Experimental data: patent US4444776A, “Dipyrido (4,3-B) (3,4-F) indoles, process for obtaining them, therapeutical use and pharmaceutical compositions” (priority 1977, dated 1984)
Like-named read-outs stand apart in the source and are kept apart here.

Experiments:
L 1210 leukemia = experiment: Test 1: antitumoral properties on L 1210 leukemia (Table I); type: in vivo, mouse
Experimental: The lower animal antitumoral properties of the compounds according to the invention have been determined by their curative action on inoculated test L-1210 leukemia. [ZUBROD C. G., Proc. Nat. Acad. Sci. 1972, 69, 1042-1047 and SCHEPARTZ SA. SCREENING, 1971, CANCER Chemother. Rep. Part 3 vol.2 p.3].
This leukemia is maintained in ascitic form by passage (i.p. route) on CBDl (C57 B16×DBA/2)F1 mice. The preparation to be tested are injected by the intraperitoneal route at least one day after the inoculation of the cells (one injection only). The results are expressed in increased life span per cent (ILS %) according to KESSEL et al. Cancer Res. 1971, 31, 1883-1887) or in percentage of the number of cells killed by the product (the survival of the animals is proportional to the number of cells injected).
The following tests were made in groups of 10 mice, unless stipulated to the contrary.
Test 1: Study of the antitumoral properties of the compounds of the invention on L 1210 leukemia
The lower animal antitumoral properties of the compounds according to the invention were determined by their curative action on test inoculated L 1210 leukemia.
This leukemia was maintained on CBD 1 (C 57 B 16×DBA/2) F1 mice. The compounds to be tested were injected by the IP route one or more days after the inoculation of the cells (single injection). The results obtained, shown in table I hereinafter, are expressed in percentage of increase of life span (ILS %) and in percentage of the number of cells killed by the compound to be tested, the survival of the animals being proportional to the number of cells injected.
The percentage of the like span ILS % (Cancer. Res. 1971, 31, 1883-1887) is the following ratio: [formula] S^t =survival of the treated animals S^c =survival of the control animals

[1] = test system: Moloney virus / viro-induced Moloney sarcoma; experiment: Test 3: development of the viro-induced Moloney sarcoma; type: in vivo, new-born mice; settings: 1 μg/mouse (0.5 mg/kg)
Text: The study of the development of the MOLONEY viro-induced sarcoma (Nat. Cancer. Inst. Monograph 22, 139-142, 1966) has also made it possible to determine that the compounds according to the invention are antiviral and antitumoral agents in lower animals.
Test 3: Study of the development of the viro-induced Moloney sarcoma
The injection of Moloney virus [C. Jasmin et al. J. Nat. Cander Inst. 1974 53 469-474] by the intramuscular i.m. route into new-born mice led after 10 days to the formation of a sarcoma. The appearance of the tumour was proportional to the dose of virus injected. The viral inoculum was constituted by a tumor homogenate diluted to 1/250, this corresponding to 10 TID 50, i.e. to the dose of virus inducing the appearance of a tumour in 50% of the animals infected. At this dose, 80 to 100% of the animals developed a tumour, and 100% of the survivors became leukemic. The experiment thus consisted in noting the number of mice presenting tumours, the regression, or not, of these tumours and finally in sacrificing the surviving animals after 2 months and in noting the presence or absence of splenomegaly (evidence of a leukemia). The virus was inoculated into new-born mice of 3 to 5 days by the IM route, and the mice received the following day (J+1) or five hours after injection (JO+5 hours) the product to be tested by the IP route.

[2] = Test 8: acute toxicity in vivo, C3H mice; settings: mouse, read-out: LD 500
Experimental: (§1) Test 8: Acute toxicity in vivo
(§2) The products to be tested were injected by the IP route into groups of 10 mice at various dilutions. Each day, the number of dead animals is noted. If the doses are well chosen, a 100% lethal dose and a 50% lethal dose have been able to be defined for each product. This study is limited to two months. Two isogenic mouse strains were systematically used: C3H/He and ICFW.

C3H/He mice = experiment: Test 8: acute toxicity in vivo, C3H mice; settings: mouse, ip
Experimental: as §1, §2

[3] = test system: chloromonocytary tumoral cells; experiment: Test 9: action on chloromonocytary tumoral cells (chloroleukemia); type: in vivo, ICFW mouse
Experimental: Test 9: Action on chloromonocytary tumoral cells
In this test, the action of the products according to the invention on chloromonocytary tumoral cells was determined according to the chloroleukemia of the mouse test (ICFW mouse, co-sanguine CFW strain) isolated in Unit 22 (B. TAMBOURIN and F. WENDLING) of the "Institut National de la Sante et de la Recherche Medicale- Paris" (I.N.S.E.R.M.) in a mouse injected with a variant of the Friend virus.
The tumour kills all the animals injected in 19.3± 2 days. This tumour develops in semi-solid ascitic form; the peritoneum is invaded, both by solid tumoral masses and cells in suspension in the ascitic liquid. The tumour is transmitted by the cells of the suspension which produce the tumoral masses and the ascitic cells.

Friend leukemia virus = experiment: Test 14: viro-induced Friend leukemia, compound 21 (Tables Xa, Xb); type: in vivo, mouse; set-up: MST: unit not given beside the values; settings: for life span: Tables Xa and II
Experimental: Test 14: viro-induced leukemia: Friend leukemia
A- As in test 2 hereinabove, the Friend leukemia virus inoculum was obtained from leukemia spleen and diluted to contain 100 SD50 /0.2 ml (SD50 =spleen enlarging dose 50 percent). The product to be tested was compound 21 (obtained according to example 7). It was given by I.P. route as a single injection 1 day after virus inoculation. […]
B. The proceeding of test 2 was repeated by using the compound 21 i.e. 1-[(γ-diethylaminopropyl)amino]-5-methyl-dipyrido[4,3-b][3,4-f]indole obtained according to example 7.
This test was carried out with a single dose of compound 21 (20 mg/kg) and with various virus doses.

[4] = experiment no 1, 10^3 cells, 50 mg/kg, J+2
[5] = experiment no 1, 10^4 cells, 50 mg/kg, J+2
[6] = experiment no 1, 10^5 cells, 50 mg/kg, J+2
[7] = experiment no 1, 10^6 cells, 50 mg/kg, J+2
[8] = experiment no 2, 10^4 cells, 50 mg/kg, J+1
[9] = experiment no 2, 10^5 cells, 50 mg/kg, J+1
[10] = experiment no 2, 10^6 cells, 50 mg/kg, J+1
[11] = 10^3 cells, 0.01 mg/mouse (0.5 mg/kg), J+1
[12] = 10^3 cells, 0.1 mg/mouse (5 mg/kg), J+1
[13] = 10^4 cells, 0.1 mg/mouse (0.5 mg/kg) [sic], J+1
[14] = 10^4 cells, 0.1 mg/mouse (5 mg/kg), J+1
[15] = Table Xa, 5 mg/kg, 1 day after virus
[16] = Table Xb, 20 mg/kg J+1, virus 1/500 (1000 SD50)
[17] = Table Xb, 20 mg/kg J+1, virus 1/1000
[18] = Table Xb, 20 mg/kg J+1, virus 1/2000 (250 SD50)

Cc1c2ccncc2c(C)c2c1[nH]c1ccncc12 [Example 1, 5,11-dimethyl dipyrido [4,3-b][3,4-f] indole]
ILS % (L 1210 leukemia; [4]): 3% | Number of cells found (L 1210 leukemia; [4]): 800 | Number of cells killed (L 1210 leukemia; [4]): 20% | Surviving mice (L 1210 leukemia; [4]): 1/10 | ILS % (L 1210 leukemia; [5]): 14,78% | Number of cells found (L 1210 leukemia; [5]): 6,000 | Number of cells killed (L 1210 leukemia; [5]): 40% | ILS % (L 1210 leukemia; [6]): 15,73% | Number of cells found (L 1210 leukemia; [6]): 40,000 | Number of cells killed (L 1210 leukemia; [6]): 60% | Surviving mice (L 1210 leukemia; [6]): 0 | ILS % (L 1210 leukemia; experiment no 1, 10^6 cells, 1 mg/mouse (50 mg/kg), IP, J+2): 34,32% | Number of cells found (L 1210 leukemia; [7]): 10^5 | Number of cells killed (L 1210 leukemia; [7]): 90% | Surviving mice (L 1210 leukemia; [7]): 0 | ILS % (L 1210 leukemia; [8]): 11,8% | Number of cells found (L 1210 leukemia; [8]): 5000 | Number of cells killed (L 1210 leukemia; [8]): 50% | ILS % (L 1210 leukemia; [9]): 38,1% | Number of cells found (L 1210 leukemia; [9]): 2000 | Number of cells killed (L 1210 leukemia; [9]): 98% | ILS % (L 1210 leukemia; experiment no 2, 10^6 cells, 1 mg/mouse (50 mg/kg), J+1): 47,3% | Number of cells found (L 1210 leukemia; [10]): 8000 | Number of cells killed (L 1210 leukemia; [10]): 99% | ILS % (difference with the controls) (L 1210 leukemia; experiment no 3, 0,1 and 0,05 mg/mouse, 10^4 and 10^3 cells): no significant difference | animals presenting a tumour ([1]; JO+5 hours): 50% | animals survived ([1]; JO+5 hours): 75% | mice with leukemia ([1]; JO+5 hours): 65% | tumours regressed ([1]; JO+5 hours): 30% | LD50 ([2]; ip): 100 mg/kg | LD 100 (C3H/He mice): 200 mg/kg | Mean survival time after treatment ([3]; 40 mg/kg 6 hours after inoculation, without treatment 18.5 ± 2 days): 25.3 ± 3.1 days | life span (Friend leukemia virus): significant increase of the life span

CCN(CC)CCCNc1nccc2c(C)c3[nH]c4ccncc4c3cc12 [Example 7, 1-(γ-diethylaminopropyl)amino-5-methyl-dipyrido-[4,3-b][3,4-f] indole]
ILS % (L 1210 leukemia; [11]): 17.4% | Number of cells found (L 1210 leukemia; [11]): 80 | Number of cells killed (L 1210 leukemia; [11]): 92% | ILS % (L 1210 leukemia; [12]): 23.2% | Number of cells found (L 1210 leukemia; [12]): 40 | Number of cells killed (L 1210 leukemia; [12]): 96% | Surviving mice (L 1210 leukemia; [12]): 5/10 | ILS % (L 1210 leukemia; 10^4 cells, 0.1 mg/mouse (0.5 mg/kg) [sic], IP, J+1): 33.3% | Number of cells found (L 1210 leukemia; [13]): 60 | Number of cells killed (L 1210 leukemia; [13]): 99.94% | Surviving mice (L 1210 leukemia; [13]): 1/10 | ILS % (L 1210 leukemia; 10^4 cells, 0.1 mg/mouse (5 mg/kg), IP, J+1): 11.5% | Number of cells found (L 1210 leukemia; [14]): 10^3 | Number of cells killed (L 1210 leukemia; [14]): 90% | animals survived ([1]; J+1): 90% | mice presenting tumours ([1]; J+1): 70% | mice with leukemia ([1]; J+1): 0% | tumours regressed ([1]; J+1): 90% | animals presenting a tumour ([1]; JO+5 hours): 5% | animals survived ([1]; JO+5 hours): 100% | mice with leukemia ([1]; JO+5 hours): 40% | tumours regressed ([1]; JO+5 hours): 100% | LD50 ([2]; C3H, IP): 20 mg/kg | LD 100 (C3H/He mice): 35 mg/kg | Mean survival time after treatment ([3]; 1 mg/kg 24 hours after inoculation, without treatment 18.9 ± 1.8 day): 29.0 ± 3.0 days | ILS % (Friend leukemia virus; [15]): 39% | MST (Friend leukemia virus; [15]): 44.5 | Range of death (Friend leukemia virus; [15]): 27 to 52 days | ILS % (Friend leukemia virus; [16]): 40% | MST (Friend leukemia virus; [16]): 40.7 | Range of death (Friend leukemia virus; [16]): 31-51 | Survivors 4 months after inoculation (Friend leukemia virus; [16]): 0 | ILS % (Friend leukemia virus; [17]): 82.7% | MST (Friend leukemia virus; [17]): 44.4 | Range of death (Friend leukemia virus; [17]): 30-54 | Survivors 4 months after inoculation (Friend leukemia virus; [17]): 0 | ILS % (Friend leukemia virus; [18]): 64% | MST (Friend leukemia virus; [18]): 55.4 | Range of death (Friend leukemia virus; [18]): 50-82 | Survivors 4 months after inoculation (Friend leukemia virus; [18]): 2 | life span (Friend leukemia virus): significant increase of the life span
